The record followed here is patent publication US20110306671A1, “AMIDE DERIVATIVES OF ETHACRYNIC ACID” (The Regents of the The University of California, priority 2008, published 2011).

One assay deals with B16. Description: Cytotoxicity of EA in tumor cell line B16. The class given is cell-based. Particulars: Mus musculus, mean of at least two experiments.
The subject of a further assay is Normal PBMC. Kind of assay: Cell viability assay (MTT) with normal peripheral blood mononuclear cells. The class given is cell-based, human. To be noted: Homo sapiens; Normal PBMC from five normal individuals; 48 hours; mean.
The subject of another assay is FOPflash reporter. Kind of assay: FOPflash reporter assay in HEK293 cells. It counts as cell-based, human. To be noted: 50 μM EA, 24 hours. As to the method:
FIG. 1. Inhibition of Wnt/β-catenin signaling by EA. […] Cells were lysed and luciferase activity was quantified. Total protein levels were determined by Bradford Assay and serve as a control for total cell number. (B) HEK293 cells were co-transfected with TOPflash reporter construct, along with expression plasmids for Wnt1, Wnt3, LRP6, Dvl and β-catenin as indicated. […] (C) HEK293 cells were transfected with FOPflash reporter with or without an expression plasmid for β-catenin. […] (D) HEK293 cells were transfected with NFAT reporter and expression plasmid for NFATc. […] The results are expressed as fold induction of luciferase activity compared to the basal level, and are the means of three experiments±SEM. For screening of the drug library, HEK293 cells were grown for at least 24 hours in 10 cm plates prior to transfection. At 50% confluence, cells were transfected with 5 μg of TOPflash reporter, 1 μg expression vector for Dvl, 1 μg of control plasmid pCMXβgal and carrier DNA pcDNA3 plasmid for a total of 10 μg/plate. After transfection for 24 hours, cells were harvested and dispersed in 96-well microtiter plates. […] Then luciferase values were determined. In the Results section, data are expressed as fold stimulation of luciferase activity compared to the basal level. […]
(Reporter assays use an easily measured gene product as a stand-in for the process of interest.)

The next assay has as its system Wnt signaling. Description: CellSensor LEF/TCF-bla SW480 cell-based assay (Wnt signaling inhibition). Set-up: species or system human. To be noted: Homo sapiens; LEF/TCF-bla SW480 cells, 20 hours. As to the method:
To determine the specificity of compounds on Wnt/[…]-catenin pathway inhibition, CellSensor LEF/TCF-bla SW480 cell-based assay (Invitrogen, Carlsbad, Calif.) was used according to the supplier's instructions, but modified for a 96 well format. Cells were plated at 25,000 cells/well in assay medium in 96-well black plates with clear bottom (Corning) the day prior to compound treatment.

The next assay addresses T1, β-catenin (Homo sapiens, UniProt P35222).
T1 construct: endogenous in cells
Kind of assay: Immunoprecipitation and immunoblotting with anti-EA antibody: β-catenin. The class given is binding. The method, then: FIG. 6. EA binds to LEF-1 in primary CLL and SW480 cells. (A) lysates from CLL cells exposed to 10 μM EA for 8 hours or 24 hours were immunoprecipitated with anti-LEF-1 antibody. The immune complexes were analyzed by immunoblotting with anti-LEF-1 and anti-EA antibodies. (B) SW480 cells were treated with indicated amounts of EA for 16 hours. Cell lysates were immunoprecipitated with anti-β-catenin antibody (Santa Cruz Biotechnology, Santa Cruz, Calif.). The immune complexes were analyzed by immunoblotting with anti-EA and anti-β-catenin antibodies. (C) SW480 cells were exposed to 50 μM of EA for 16 hours and cell lysates were immunoprecipitated with anti-β-catenin antibody. The proteins in the immunoprecipitates were resolved by SDS-PAGE, transferred, and probed with indicated antibodies.
A conjugate of EA with Keyhole Limpet Hemocyanin (KLH, Sigma) was prepared by thiolation of KLH with N-succinimidyl S-acetylthioacetate (SATA), followed by allowing the SATA-KLH conjugate to form a Michael adduct with EA, as described in Hermanson (1996). Immunization of rabbits was performed by three 1 mL subcutaneous injections of approximately 0.4 mg EA-KLH conjugates. Complete Freund's adjuvant was used for the first injection. The second and third injections were performed 3 and 6 weeks after the first, using incomplete adjuvant. […]
In general terms: Immunoblotting shows a protein as a band on a membrane.

Assay [1] concerns different tumor cell lines. Description: Cytotoxicity of EA in different tumor cell lines (summary). The class given is cell-based. To be noted: read-out: mean 50% inhibitory concentration (IC50) of EA in these cell lines; range over the tumor cell lines of Table 3.
Another assay deals with HT29. Kind of assay: Cytotoxicity of EA in tumor cell line HT29. It counts as cell-based. Particulars: Homo sapiens, HT-29, mean of at least two experiments.

T1 sequence (P35222 whole entry): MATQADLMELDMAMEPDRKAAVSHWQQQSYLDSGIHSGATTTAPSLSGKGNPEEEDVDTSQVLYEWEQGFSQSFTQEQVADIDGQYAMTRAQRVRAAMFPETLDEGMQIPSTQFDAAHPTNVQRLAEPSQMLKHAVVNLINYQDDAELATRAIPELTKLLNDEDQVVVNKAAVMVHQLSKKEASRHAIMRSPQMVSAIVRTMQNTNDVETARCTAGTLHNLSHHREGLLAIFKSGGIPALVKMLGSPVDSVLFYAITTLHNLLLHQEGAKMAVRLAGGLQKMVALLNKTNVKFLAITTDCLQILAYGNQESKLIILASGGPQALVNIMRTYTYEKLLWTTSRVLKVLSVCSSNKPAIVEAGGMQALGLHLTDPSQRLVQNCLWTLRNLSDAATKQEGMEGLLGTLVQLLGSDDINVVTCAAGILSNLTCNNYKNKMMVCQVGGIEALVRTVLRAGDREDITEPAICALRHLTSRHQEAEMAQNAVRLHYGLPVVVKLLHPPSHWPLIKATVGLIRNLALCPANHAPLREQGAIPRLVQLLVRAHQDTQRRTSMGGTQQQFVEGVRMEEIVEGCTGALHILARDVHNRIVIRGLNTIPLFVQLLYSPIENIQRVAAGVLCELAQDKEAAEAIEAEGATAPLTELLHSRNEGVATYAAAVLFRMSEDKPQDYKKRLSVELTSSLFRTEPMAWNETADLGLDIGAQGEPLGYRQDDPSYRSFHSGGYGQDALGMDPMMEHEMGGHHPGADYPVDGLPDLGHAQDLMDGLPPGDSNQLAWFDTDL

`C=C(CC)C(=O)c1ccc(OCC(=O)O)c(Cl)c1Cl` [Compound 1, Ethacrynic acid]: the IC50 was 201 µM in the assay with B16; 34.8 µM with Normal PBMC; 32.7 µM in the assay on Wnt signaling; 40 to 200 µM in assay [1]; 56 µM in the assay on HT29. For the same compound, in the assay with FOPflash reporter, the “effect on the FOPflash reporter” value is on record as “no effect”. In addition, the “binding to β-catenin” value on β-catenin (CLL extracts, data not shown) was “did not bind detectably”. Besides, the “detection of precipitated β-catenin by anti-EA antibody” value on β-catenin (SW480 cells, 16 hours) is recorded as “could not be detected by anti-EA antibody”.
